Experimental data taken from patent publication EP4656185A1, “NOVEL MOLECULAR ASSEMBLY OF AXITINIB” (Scai Therapeutics Co., Ltd., priority 2024, dated 2025).

Assay: Solubility (dissolution concentration) of axitinib polymorph at pH 1 and pH 2
Format: physicochemical
Protocol: Experimental Example 4. Solubility of new axitinib polymorph (SCAI-Form)
Method for measuring solubility at pH 1: Stirred for 15 minutes at a concentration of 5 mg/mL, and then filtered, diluted 10 times with DW, and analyzed. (The value calculated as [measured value x 10] is described in the results)
Method for measuring solubility at pH 2: Stirred for 15 minutes at a concentration of 1 mg/mL, and then filtered, analyzed, and shown in Table 6.

Row | solubility of SCAI-Form relative to API (comparison with Axitinib API, from Table 6 (pH 1 and pH 2)) | Compound | Dissolution concentration at pH 1 (pH 1, stirred for 15 minutes at 5 mg/mL, filtered, diluted 10 times with DW, value = measured value x 10) [mg/mL] | Dissolution concentration at pH 2 (pH 2, stirred for 15 minutes at 1 mg/mL, filtered, analyzed) [mg/mL]
1 |  | 6-[2-(methylcarbamoyl)phenylsulfanyl]-3-E-[2-(pyridin-2-yl)ethenyl]indazole [API] | 2.661 | 0.073
2 | about twice higher | CNC(=O)c1ccccc1Sc1ccc2c(/C=C/c3ccccn3)n[nH]c2c1 [SCAI-Form, axitinib] |  | 
